Patent EP3722296B1, “DIHYDRONAPHTHYRIDINES AND RELATED COMPOUNDS USEFUL AS KINASE INHIBITORS FOR THE TREATMENT OF PROLIFERATIVE DISEASES” (Deciphera Pharmaceuticals, LLC, priority 2012, dated 2013)

What was measured:
c-KIT D816H kinase = biological target: T1, c-KIT D816H kinase (Homo sapiens, UniProt P10721, D816H); experiment: c-KIT D816H Kinase Assay; format: biochemical; conditions: enzymatic assay, ATP 200 µM
T1 construct: The construct contains residues T544-V976 of cKit; GST (N); TEV cleavage site (internal); purchased deCODE Biostructures
T1 sequence (P10721 544-976 D816H): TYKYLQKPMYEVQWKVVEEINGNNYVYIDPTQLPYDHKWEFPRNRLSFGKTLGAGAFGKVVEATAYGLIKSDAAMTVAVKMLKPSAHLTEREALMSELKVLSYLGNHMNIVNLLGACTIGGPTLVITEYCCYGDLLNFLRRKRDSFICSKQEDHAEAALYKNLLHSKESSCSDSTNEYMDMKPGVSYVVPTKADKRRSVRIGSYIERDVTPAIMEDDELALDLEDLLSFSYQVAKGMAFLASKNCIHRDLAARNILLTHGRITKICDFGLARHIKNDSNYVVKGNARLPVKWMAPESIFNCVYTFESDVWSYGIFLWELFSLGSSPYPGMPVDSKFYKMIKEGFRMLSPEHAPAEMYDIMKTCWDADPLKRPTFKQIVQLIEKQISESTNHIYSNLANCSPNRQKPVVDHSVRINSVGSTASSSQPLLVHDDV
How it was run: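 Mutant cKit enzyme, expressed as a GST-fusion construct carrying an N-terminal tag and TEV site, was mixed with serially diluted compound to start reactions. Activity tracked via NADH consumption, read continuously at 340 nm over 6 hours at 30 °C.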

Phospho-KIT (Tyr719) [1] = experiment: GIST430 KIT Western Blot; format: cell-based; conditions: GIST430 cells, 4 hours, serum-free medium; read-out: pKIT suppression by western blot analysi GIST430
How it was run: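 GIST430 cells were compound-treated in serum-free Ham's F10, then lysed. Phospho-KIT (Tyr719) was measured by western blot with fluorescence-mode ECL, and blots were reprobed for total KIT; IC50 derived from concentration response.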

Phospho-KIT (Tyr719) [2] = biological target: T2, Phospho-KIT (Tyr719) (Homo sapiens, UniProt P10721, K642E); experiment: GIST882 KIT Western Blot; format: cell-based; conditions: GIST882 cells, 4 hours, serum-free medium; read-out: pKIT suppression by western blot analysi GIST 882
T2 construct: endogenous in cells; host or cells: GIST882
T2 sequence (P10721 26-976 K642E): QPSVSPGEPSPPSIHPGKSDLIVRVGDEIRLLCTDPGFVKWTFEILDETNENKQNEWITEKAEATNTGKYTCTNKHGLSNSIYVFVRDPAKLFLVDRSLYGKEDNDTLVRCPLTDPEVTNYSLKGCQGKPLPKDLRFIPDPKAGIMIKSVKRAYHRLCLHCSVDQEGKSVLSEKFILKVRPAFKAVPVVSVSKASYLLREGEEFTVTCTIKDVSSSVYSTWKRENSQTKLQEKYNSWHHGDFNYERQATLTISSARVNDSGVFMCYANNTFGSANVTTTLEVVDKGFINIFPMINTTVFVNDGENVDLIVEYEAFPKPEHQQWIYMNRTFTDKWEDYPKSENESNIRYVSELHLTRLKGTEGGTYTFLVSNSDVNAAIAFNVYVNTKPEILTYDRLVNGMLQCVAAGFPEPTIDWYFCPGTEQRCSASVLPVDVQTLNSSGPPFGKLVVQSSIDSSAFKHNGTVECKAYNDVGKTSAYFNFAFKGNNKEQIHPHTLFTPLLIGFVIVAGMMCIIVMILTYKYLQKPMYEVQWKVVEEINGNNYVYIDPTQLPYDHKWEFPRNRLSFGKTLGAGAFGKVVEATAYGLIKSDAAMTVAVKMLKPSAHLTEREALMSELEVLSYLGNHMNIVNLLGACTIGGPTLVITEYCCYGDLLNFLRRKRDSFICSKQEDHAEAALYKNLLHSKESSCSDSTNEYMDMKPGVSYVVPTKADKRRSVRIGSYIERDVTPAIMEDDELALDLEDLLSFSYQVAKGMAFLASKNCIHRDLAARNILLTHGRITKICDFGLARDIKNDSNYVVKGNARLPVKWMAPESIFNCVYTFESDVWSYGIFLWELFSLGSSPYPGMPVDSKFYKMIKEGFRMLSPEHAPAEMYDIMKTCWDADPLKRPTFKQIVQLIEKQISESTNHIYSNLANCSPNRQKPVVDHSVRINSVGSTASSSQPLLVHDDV
Experimental: GIST48, GIST430, and GIST882 cells were obtained from J. Fletcher (Brigham and Women's Hospital, Boston, MA). GIST T1 cells were obtained from B. Rubin (Cleveland Clinic, Cleveland, OH) and Professor Takahiro Taguchi (Kochi Medical School, Nankoku, Kochi, Japan). […] GIST430 cells were grown in Ham's F10 medium supplemented with 15% characterized fetal bovine serum (Invitrogen, Carlsbad, CA), 30 mg/L bovine pituitary extract (BD Biosciences, San Jose, CA), 0.5% Mito+ serum extender (BD Biosciences, San Jose, CA), 1 unit/mL penicillin G, 1 µg/ml streptomycin, and 0.29 mg/mL L-glutamine at 37 °C, 5%CO2, 95% humidity. GIST T1 cells were grown in DMEM medium supplemented with 10% characterized fetal bovine serum (Invitrogen, Carlsbad, CA), 1 unit/mL penicillin G, 1 µg/ml streptomycin, and 0.29 mg/mL L-glutamine at 37 °C, 5% CO2, and 95% humidity.
Two hundred fifty thousand cells were added per well in a 24-well tissue-culture treated plate. […] Medium was aspirated, cells were washed with PBS, and serum-free RPMI1640 medium was added. […] Cells were washed with PBS, then lysed. Cell lysates were separated by SDS-PAGE and transferred to PVDF. Phospho-KIT (Tyr719) was detected using an antibody from Cell Signaling Technology (Beverly, MA), ECL Plus detection reagent (GE Healthcare, Piscataway, NJ) and a Molecular Devices Storm 840 phosphorimager in fluorescence mode. Blots were stripped and probed for total KIT using an antibody from Santa Cruz Biotech (Santa Cruz, CA). IC50 values were calculated using Prism software (Graphpad, San Diego, CA).

c-KIT kinase = c-KIT kinase (Homo sapiens, UniProt P10721); experiment: c-KIT kinase Assay; format: biochemical; set-up: cKIT residues T544-V976; GST (N); TEV cleavage site (internal); purchased deCODE Biostructures; conditions: enzymatic assay, ATP 200 µM; read-out: KIT (wt) IC50
Sequence of c-KIT kinase (P10721 544-976): as the sequence (P10721 544-976 D816H) above, with H273D counted along it
How it was run: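 This continuous spectrophotometric assay tracked c-KIT kinase turnover through NADH consumption at 340 nm, recorded for 2 hours at 30 °C. The enzyme construct from deCODE Biostructures carried an N-terminal tag, a GST-fusion sequence and a TEV cleavage site. Percent inhibition came from reaction rates over 0 to 1 h relative to a no-compound control, and IC50 values were derived with GraphPad Prism.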

IC50 (c-KIT D816H kinase) [nM] | IC50 (Phospho-KIT (Tyr719) [1]) [nM] | IC50 (Phospho-KIT (Tyr719) [2]) [nM] | IC50 (c-KIT kinase) [nM] | SMILES
10 to 100 | < 10 | 10 to 100 | < 10 | CCn1c(=O)c(-c2cc(NC(=O)Nc3cccc(F)c3)c(F)cc2Br)cc2cnc(NC)cc21 [Example 50, 1-(4-bromo-5-(1-ethyl-7-(methylamino)-2-oxo-1,2-dihydro-1,6-naphthyridin-3-yl)-2-fluorophenyl)-3-(3-fluorophenyl)urea]
10 to 100 | 10 to 100 |  | < 10 | CCn1c(=O)c(-c2cc(NC(=O)Nc3cc(F)cc(F)c3)c(F)cc2C)cc2cnc(NC)cc21 [Example 60, 1-(3,5-difluorophenyl)-3-(5-(1-ethyl-7-(methylamino)-2-oxo-1,2-dihydro-1,6-naphthyridin-3-yl)-2-fluoro-4-methylphenyl)urea]
10 to 100 | 10 to 100 |  | < 10 | CCn1c(=O)c(-c2cc(NC(=O)Nc3ccccc3)c(F)cc2Cl)cc2cnc(NC(=O)N3CC(N(C)C)C3)cc21 [Example 102, N-(3-(2-chloro-4-fluoro-5-(3-phenylureido)phenyl)-1-ethyl-2-oxo-1,2-dihydro-1,6-naphthyridin-7-yl)-3-(dimethylamino)azetidine-1-carboxamide]
10 to 100 | 10 to 100 | 10 to 100 | 10 to 100 | CCn1c(=O)c(-c2cc(NC(=O)Nc3cccc(F)c3)c(F)cc2Cl)cc2cnc(NCCOC)cc21 [Example 28, 1-(4-chloro-5-(1-ethyl-7-(2-methoxyethylamino)-2-oxo-1,2-dihydro-1,6-naphthyridin-3-yl)-2-fluorophenyl)-3-(3-fluorophenyl)urea]
10 to 100 | 10 to 100 | 10 to 100 | 10 to 100 | CCn1c(=O)c(-c2cc(NC(=O)Nc3csc4ccccc34)c(F)cc2C)cc2cnc(NC)cc21 [Example 59, 1-(benzo[b]thiophen-3-yl)-3-(5-(1-ethyl-7-(methylamino)-2-oxo-1,2-dihydro-1,6-naphthyridin-3-yl)-2-fluoro-4-methylphenyl)urea]
< 10 |  | 10 to 100 | < 10 | CCn1c(=O)c(-c2cc(NC(=O)Nc3ccccc3)c(F)cc2Cl)cc2cnc(NC)cc21 [Example 3, 1-(4-chloro-5-(1-ethyl-7-(methylamino)-2-oxo-1,2-dihydro-1,6-naphthyridin-3-yl)-2-fluorophenyl)-3-phenylurea]
< 10 | 10 to 100 | 10 to 100 | < 10 | CCn1c(=O)c(-c2cc(NC(=O)Nc3ccccc3)c(F)cc2Cl)cc2cnc(NC(C)=O)cc21 [Example 54, 1-(5-(7-acetamido-1-ethyl-2-oxo-1,2-dihydro-1,6-naphthyridin-3-yl)-4-chloro-2-fluorophenyl)-3-phenylurea]
 | 10 to 100 | 10 to 100 | 10 to 100 | CCn1c(=O)c(-c2cc(NC(=O)Nc3ccccc3)c(F)cc2Br)cc2cnc(NCCOC)cc21 [Example 51, 1-(4-bromo-5-(1-ethyl-7-(2-methoxyethylamino)-2-oxo-1,2-dihydro-1,6-naphthyridin-3-yl)-2-fluorophenyl)-3-phenylurea]
10 to 100 | 10 to 100 | 100 to 1000 | < 10 | CCn1c(=O)c(-c2cc(NC(=O)Nc3ccccc3)c(F)cc2Cl)cc2cnc(NCCOC)cc21 [Example 27, 1-(4-chloro-5-(1-ethyl-7-(2-methoxyethylamino)-2-oxo-1,2-dihydro-1,6-naphthyridin-3-yl)-2-fluorophenyl)-3-phenylurea]

The remaining lines, values behind:

SMILES | IC50 (c-KIT D816H kinase) [nM] | IC50 (Phospho-KIT (Tyr719) [1]) [nM] | IC50 (Phospho-KIT (Tyr719) [2]) [nM] | IC50 (c-KIT kinase) [nM]
CCn1c(=O)c(-c2cc(NC(=O)Nc3ccccc3F)c(F)cc2Cl)cc2cnc(NC)cc21 [Example 25, 1-[4-chloro-5-(1-ethyl-7-methylamino-2-oxo-1,2-dihydro-[1,6]naphthyridin-3-yl)-2-fluoro-phenyl]-3-(2-fluoro-phenyl)-urea] | 10 to 100 | 10 to 100 | 10 to 100 | < 10
CCn1c(=O)c(-c2cc(NC(=O)Nc3cccc4ccccc34)c(F)cc2Cl)cc2cnc(NC)cc21 [Example 6, 1-(4-chloro-5-(1-ethyl-7-(methylamino)-2-oxo-1,2-dihydro-1,6-naphthyridin-3-yl)-2-fluorophenyl)-3-(naphthalen-1-yl)urea] | 10 to 100 | < 10 | 10 to 100 | < 10
CCn1c(=O)c(-c2cc(NC(=O)Nc3ccc(F)c(CN4CCN(C)CC4)c3)c(F)cc2Cl)cc2cnc(NC)cc21 [Example 87, 1-(4-chloro-5-(1-ethyl-7-(methylamino)-2-oxo-1,2-dihydro-1,6-naphthyridin-3-yl)-2-fluorophenyl)-3-(4-fluoro-3-((4-methylpiperazin-1-yl)methyl)phenyl)urea] | 10 to 100 | 100 to 1000 | 100 to 1000 | < 10
CCn1c(=O)c(-c2cc(NC(=O)Nc3csc4ccccc34)c(F)cc2Cl)cc2cnc(NC)cc21 [Example 32, 1-(benzo[b]thiophen-3-yl)-3-(4-chloro-5-(1-ethyl-7-(methylamino)-2-oxo-1,2-dihydro-1,6-naphthyridin-3-yl)-2-fluorophenyl)urea] | < 10 | < 10 | 10 to 100 | < 10
CNc1cc2c(cn1)cc(-c1cc(NC(=O)Nc3cccc(F)c3)c(F)cc1Cl)c(=O)n2C(C)C [Example 77, 1-(4-chloro-2-fluoro-5-(1-isopropyl-7-(methylamino)-2-oxo-1,2-dihydro-1,6-naphthyridin-3-yl)phenyl)-3-(3-fluorophenyl)urea] | 10 to 100 | 10 to 100 | 10 to 100 | < 10
CCn1c(=O)c(-c2cc(NC(=O)Nc3cccc(F)c3)c(F)cc2C)cc2cnc(NC)cc21 [Example 44, 1-(5-(1-ethyl-7-(methylamino)-2-oxo-1,2-dihydro-1,6-naphthyridin-3-yl)-2-fluoro-4-methylphenyl)-3-(3-fluorophenyl)urea] | < 10 | < 10 | 10 to 100 | < 10
CCn1c(=O)c(-c2cc(NC(=O)Nc3ccccc3)c(F)cc2C)cc2cnc(NC(=O)N(C)C)cc21 [Example 101, 3-(1-ethyl-3-(4-fluoro-2-methyl-5-(3-phenylureido)phenyl)-2-oxo-1,2-dihydro-1,6-naphthyridin-7-yl)-1,1-dimethylurea] | 10 to 100 | 10 to 100 | 100 to 1000 | 10 to 100
CCn1c(=O)c(-c2cc(NC(=O)Nc3ccccc3)c(F)cc2C)cc2cnc(NC)cc21 [Example 23, 1-(5-(1-ethyl-7-(methylamino)-2-oxo-1,2-dihydro-1,6-naphthyridin-3-yl)-2-fluoro-4-methylphenyl)-3-phenylurea] | 10 to 100 |  | 10 to 100 | < 10
CCn1c(=O)c(-c2cc(NC(=O)Nc3ccccc3)c(F)cc2Br)cc2cnc(N)cc21 [Example 57, 1-(5-(7-amino-1-ethyl-2-oxo-1,2-dihydro-1,6-naphthyridin-3-yl)-4-bromo-2-fluorophenyl)-3-phenylurea] | 10 to 100 | 10 to 100 | 100 to 1000 | < 10
CNc1cc2c(cn1)cc(-c1cc(NC(=O)Nc3ccccc3)c(F)cc1Cl)c(=O)n2C(C)C [Example 22, 1-(4-chloro-2-fluoro-5-(1-isopropyl-7-(methylamino)-2-oxo-1,2-dihydro-1,6-naphthyridin-3-yl)phenyl)-3-phenylurea] | 10 to 100 | 10 to 100 | 10 to 100 | < 10
CCn1c(=O)c(-c2cc(NC(=O)Nc3cc(F)ccc3F)c(F)cc2C)cc2cnc(NC)cc21 [Example 61, 1-(2,5-difluorophenyl)-3-(5-(1-ethyl-7-(methylamino)-2-oxo-1,2-dihydro-1,6-naphthyridin-3-yl)-2-fluoro-4-methylphenyl)urea] | 100 to 1000 | 10 to 100 |  | < 10
